Experimental data taken from the NIST ThermoML archive (doi:10.1016/j.jct.2016.05.021).

Experiment: xn = mol fraction of the nth substance listed
Details: 100 kPa, Liquid; for speed of sound: Frequency=3 MHz, Sing-around technique in a fixed-path interferometer; for mass density: Vibrating tube method

O=C1CCCN1 [2-pyrrolidinone] + CCCC[n+]1ccn(C)c1.O=S(=O)([N-]S(=O)(=O)C(F)(F)F)C(F)(F)F
Details | mass density, 298.15 K [kg/m3] | mass density, 303.15 K [kg/m3] | mass density, 308.15 K [kg/m3] | mass density, 313.15 K [kg/m3] | speed of sound, 298.15 K [m/s] | speed of sound, 303.15 K [m/s] | speed of sound, 308.15 K [m/s] | speed of sound, 313.15 K [m/s] | speed of sound, 318.15 K [m/s]
x2 = 0 | 1107.16 | 1103.07 | 1098.99 | 1094.9 | 1634.3 | 1617.7 | 1602.3 | 1585.4 | 1569.4
x2 = 0.1242 | 1204.09 | 1198.66 | 1193.23 | 1187.79 | 1491.9 | 1477.1 | 1462.9 | 1448.4 | 1434.3
x2 = 0.22 | 1253.58 | 1248.02 | 1242.46 | 1236.9 | 1431.2 | 1417 | 1403.4 | 1389.4 | 1375.9
x2 = 0.3191 | 1292.55 | 1287.03 | 1281.51 | 1275.99 | 1387.3 | 1373.5 | 1360.3 | 1346.9 | 1333.8
x2 = 0.4048 | 1320.08 | 1314.63 | 1309.18 | 1303.73 | 1357.6 | 1344.4 | 1331.3 | 1318.2 | 1305.5
x2 = 0.51 | 1348.24 | 1342.88 | 1337.52 | 1332.16 | 1327.5 | 1314.7 | 1302.1 | 1289.4 | 1276.9
x2 = 0.5945 | 1367.5 | 1362.18 | 1356.86 | 1351.54 | 1306.9 | 1294.3 | 1281.8 | 1269.4 | 1257.2
x2 = 0.7171 | 1391.3 | 1386.09 | 1380.88 | 1375.67 | 1280.2 | 1268.1 | 1255.9 | 1244 | 1232.2
x2 = 0.8383 | 1411.52 | 1406.4 | 1401.28 | 1396.16 | 1256.7 | 1244.9 | 1233.1 | 1221.8 | 1210.4
x2 = 0.9084 | 1421.66 | 1416.7 | 1411.74 | 1406.78 | 1244 | 1232.4 | 1221 | 1209.8 | 1198.6
